Values quoted from earlier work, collected in paper PMC11215690 (Clinical and Translational Science, 2024).

System: healthy participants
Conditions: studies of healthy participants

SMILES	most frequently reported TEAEs
CN1C(=O)[C@@H](NC(=O)c2nnc(Cc3ccccc3)[nH]2)COc2ccccc21 [GSK2982772]	headache and skin reaction of contact dermatitis
O=C(c1nc2n(n1)[C@H](c1ccccc1)C[C@@H]2F)C1CC1 [GDC‐8264]	headache and skin reaction of contact dermatitis
